Measured values from article PMC3782081 (Cell, 2012).
Values belong to the compound of their own block, whether it stands above or below them.

Columns and labels:
Assay type in all cases: cell-based
[1] = molecular target: T1, UCP1 (uncoupling protein 1) (Mus musculus, UniProt P12242); assay: whole-mitoplast patch-clamp, inhibition by […] GDP in the bath
T1 sequence (P12242 1-307): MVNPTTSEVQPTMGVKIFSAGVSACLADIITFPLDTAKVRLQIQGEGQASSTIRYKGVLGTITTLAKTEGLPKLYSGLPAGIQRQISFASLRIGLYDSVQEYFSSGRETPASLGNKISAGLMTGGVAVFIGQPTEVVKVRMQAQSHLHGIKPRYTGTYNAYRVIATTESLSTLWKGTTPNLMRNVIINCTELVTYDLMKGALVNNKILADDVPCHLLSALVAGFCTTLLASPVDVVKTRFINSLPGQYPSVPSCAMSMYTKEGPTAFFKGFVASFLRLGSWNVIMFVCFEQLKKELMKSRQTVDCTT

[2] = molecular target: T1, UCP1 (uncoupling protein 1); assay: whole-mitoplast patch-clamp, inhibition by […] in the bath; settings: read-out: % inhibition at 4 μM
[3] = molecular target: T1, UCP1 (uncoupling protein 1); assay: whole-mitoplast patch-clamp, inhibition of IUCP1 reactivated with exogenous OA; settings: read-out: % inhibition at 50 μM

Compound: Nc1nc2c(ncn2[C@@H]2O[C@H](COP(=O)(O)OP(=O)(O)O)[C@@H](O)[C@H]2O)c(=O)[nH]1 [GDP]
whole-mitoplast patch-clamp, inhibition by 1 mM GDP in the bath [1]: elicited a large-amplitude current that was strongly inhibited by the classic UCP1 inhibitor GDP (Figure 1B)

inhibition at 4 µM [2]: 92%
Compound: CCCCCCCC/C=C\CCCCCCCC(=O)SCCNC(=O)CCNC(=O)[C@H](O)C(C)(C)COP(=O)(O)OP(=O)(O)OC[C@H]1O[C@@H](n2cnc3c(N)ncnc32)[C@H](O)[C@@H]1OP(=O)(O)O [oleoyl-CoA]

inhibition at 50 µM [3]: 77%
Compound: O=C1NC(=O)/C(=C/c2ccc(C(=O)NC[C@@H]3C[C@@H](SC(c4ccccc4)(c4ccccc4)c4ccccc4)CN3C(=O)c3ccccc3C(=O)c3ccc(F)cc3F)cc2)S1 [pyrrophenone]
